Literature values as cited in patent US11376263B2, “Cyproterone acetate compositions and uses thereof” (FORTRESS BIOTECH, INC., priority 2020, dated 2022).

Key:
[1] = daily administration

time to CPA steady state [1] | AUC and Cmax in obese women versus normal weight women (obese vs normal weight women) | mean oral bioavailability (oral, large inter- and intraindividual variability) | SMILES
approximately 16 days | – | – | CC(=O)O[C@]1(C(C)=O)CC[C@H]2[C@@H]3C=C(Cl)C4=CC(=O)[C@@H]5C[C@@H]5[C@]4(C)[C@H]3CC[C@@]21C [CPA, cyproterone acetate]
– | lower | approximately 45% | C#C[C@]1(O)CC[C@H]2[C@@H]3CCc4cc(O)ccc4[C@H]3CC[C@@]21C [EE, ethinylestradiol]
